{"source": "patent US20220243177A1", "about": "“METHODS OF CULTURING QUIESCENT HEMATOPOIETIC STEM CELLS AND TREATMENT METHODS” (priority 2019, published 2022)", "type_in_all_cases": "cell-based, mouse", "key": {"[1]": {"system": "MMP-low and MMP-high HSCs of CAG-RFP-EGFP-LC3 bone marrow", "test": "CAG-RFP-EGFP-LC3 assay", "details": "ConA 40 nM, 3 hours; superior to starving condition", "method": "CAG-RFP-EGFP-LC3 Assay. Total BM cells from CAG-RFP-EGFP-LC3 mice were cultured in StemSpan with SCF (10 ng/mL) and TPO (20 ng/mL) at 8×10^6 cells/ mL. Cells were either incubated with ConA (40 nM), chloroquine (CQ, […]), leupeptin ([…]) or DMSO control, or -starved amino acid-depleted RPMI 1640 media for 3 hours to induce autolysosome accumulation. Both GFP and mRFP are expressed in a single transgene, both green and red fluorescence is emitted from the same LC3 molecule, with 1:1 stoichiometry, thus allowing a more-accurate quantification of autophagosomes and autolysosomes measured by flow cytometry 3 hours post-treatment. Given the fluorescent incompatibility, only frequency of HSC with autophagosome (RFP^+GFP^+-LC3) or autolysosome formation (RFP^+-LC3) normalized to conditions with MMP-low against MMP-high HSCs was determined."}, "[2]": {"system": "MMP-low and MMP-high HSCs", "test": "Autophagic vacuole formation / lysosomal localization of mitochondria (confocal immunofluorescence)", "text": "Immunofluorescence Staining, Imaging, and Analysis—Super Resolution Confocal Microscopy: Images were acquired with a Zeiss LSM 880 confocal microscope equipped with Airyscan Super Resolution Imaging module, using a 100×/1.46 Alpha Plan Apochromat objective lens (Zeiss MicroImaging, Jena, Germany) with “optimal” (Nyquist) XY scaling. Z stacks through the entire cell were acquired at an […] (at least 20 optical sections) using a pixel dwell time of >50 microseconds and field dimensions of […] (20 MMP-low and 20 MMP-high HSCs analyzed). This was followed by Airyscan image processing (set at auto but rarely over 6.2) and analyses using ZEN image acquisition and processing software (ZEN blue/black). Maximum intensity projections shown in the figures were also obtained using ZEN Blue software.\nLysosomal Localization of Mitochondria. FACS-sorted MMP-low and MMP-high HSCs (LSKCD150^+CD48^-MMP-low/-high) were treated with DMSO control or leupeptin […] for 4 hours. HSCs were then fixed and imaged for TOM20 (mitochondria) and LAMP1 (lysosomes).\nAutophagic Vacuole Formation. Accumulation of autophagy substrates, Translocase of outer membrane 20 (TOM20) or Map11c3a (LC3), was determined in the presence of amino acid-containing (DMSO) or -starved amino acid-depleted media, v-ATPase inhibitor concanamycin A (ConA 40nM), inhibitor of autophagosome-autolysosome fusion chloroquine (CQ, […]), or protease inhibitor, leupeptin […] following guidelines outlined for study of autophagy (Klionsky et al., “Guidelines for the Use and Interpretation of Assays for Monitoring Autophagy (3rd Edition),” Autophagy 12(1): 1-222 (2016) and Martinez-Lopez et al., “Autophagy Proteins Regulate ERK Phosphorylation,” Nat. Commun. 4: 2799 (2013), which are hereby incorporated by reference in their entirety). In brief, FACS-sorted\nMMP-low and MMP- high HSCs were cultured in the presence or absence of indicated inhibitors for 4, 5, or 18 hours following which cells were subjected to immunofluorescence assays for TOM20, LC3 and/or LAMP1 or LAMP2 as described above. Analyses were performed to quantify the turnover of indicated protein in lysosomes by evaluating the accumulation of TOM20 or LC3 in the presence versus absence of an inhibitor. TOM20 and LC3 flux were determined by subtracting the colocalized value of inhibitor-untreated TOM20 or LC3 with LAMP1 from corresponding inhibitor-treated values. Images were captured using a Zeiss LSM880 Airyscan confocal microscope using 100 X objectives (Leica), and percentage colocalization was calculated using the JACoP plugin (NIH ImageJ).\nMitochondrial and Lysosome Morphology: Freshly isolated HSCs were analyzed for mitochondrial morphology. Each individual HSC (150 total) was analyzed by using Arivis Vision 4D software and classified as either fragmented or not fragmented in accordance with number of surfaces. Cells that fulfilled the definition of ‘fragmented’ contained 3 or more individual mitochondrial surfaces (Kask et al., “Fluorescence-intensity Distribution Analysis and Its Application in Biomolecular Detection Technology,” Proc. Natl. Acad. Sci. USA 96(24): 13756-13761 (1999), which is hereby incorporated by reference in its entirety). Lysosomes' fluorescence intensity or area profiling was calculated using ImageJ software enabling the detection of fluorescently labeled […] boundaries (lysosomal marker LAMP1), as reflected by sharp increases or decreases in fluorescence intensity. Channels displaying fluorescence for either mitochondria or lysosomes were thresholded with the IsoData option to delimit the boundaries of mitochondrial networks and lysosome morphology. The resulting outlines were measured using the analyzed particles option to determine the size of distinct particles representing mitochondrial networks or lysosomes. More than 50 cells/condition/experiment were analyzed for lysosomes. […]"}, "[3]": {"system": "MMP-low and MMP-high LSK cells", "test": "Metabolic assays (Seahorse OCR and ECAR)", "details": "ConA 40 nM, 18 hours", "method": "Metabolic Assays. Oxygen consumption rates (“OCR”) and extracellular acidification rates (“ECAR”) were measured using a 96-well Seahorse Bioanalyzer XF 96 according to manufacturer's instructions using Seahorse Mito Stress Test or Glycolysis Stress Test kit (Agilent Technologies). In brief, MMP-low and MMP-high LSK cells isolated from a pool of at least 11 mice (40,000 cells per well) were sorted and treated with or without ConA (40 nM) for 18 hours in StemSpan media with SCF (10 ng/mL) and TPO (20 ng/mL). Cells were washed and suspended in XF basic medium with 11 mM glucose, 1 mM sodium pyruvate and 2 mM glutamine (pH 7.4 at 37° C.). The injection port A on the sensor cartridge was loaded with […] oligomycin (Oligo), 2 mM FCCP was loaded into port B and 0.5 mM rotenone/antimycin (ROT/AA) A was loaded into port C. During sensor calibration, the cells were incubated in the 37° C. non-CO2 incubator. The plate was immediately placed onto the calibrated XF96 extracellular flux analyzer for the Mito Stress Test. For the glycolysis stress test, cells were suspended in XF basic medium in 1 mM glutamine (pH 7.4 at 37° C.). The injection port A on the sensor cartridge was loaded with 10 mM glucose. Then, 2 mM oligomycin was loaded into port B and 50 mM 2-DG into port C. During sensor calibration, cells were incubated in the 37° C. non-CO2 incubator. The plate was immediately placed in the calibrated XF96 extracellular flux analyzer for the glycolysis stress test."}}, "data": [{"smiles": "C/C=C/[C@H]1O[C@@](O)([C@@H](C)[C@H](O)[C@H](C)[C@H]2OC(=O)/C(OC)=C/C(C)=C/[C@@H](C)[C@@H](O)[C@@H](CC)[C@@H](O)[C@H](C)C/C(C)=C/C=C/[C@@H]2OC)C[C@@H](O[C@H]2C[C@@H](O)[C@H](OC(N)=O)[C@@H](C)O2)[C@@H]1C", "note": "[ConA, concanamycin A]", "values": [{"measurement": "frequency of autolysosome (RFP+)-accumulated MMP-high and MMP-low HSCs", "setting": "[1]", "result": "specifically promoted the frequency"}, {"measurement": "fold increase of enlarged lysosomes, MMP-high HSCs", "setting": "[2]; 5-hour ConA treatment, 40 nM", "result": 35}, {"measurement": "fold increase of enlarged lysosomes, MMP-low HSCs", "setting": "[2]; 5-hour ConA treatment, 40 nM", "result": 32}, {"measurement": "increase of lysosomal localization of TOM20, MMP-high HSCs", "setting": "[2]; ConA 40 nM", "result": "~3", "unit": "fold"}, {"measurement": "increase of lysosomal localization of TOM20, MMP-low HSCs", "setting": "[2]; ConA 40 nM", "result": "~1.3", "unit": "fold"}, {"measurement": "mitochondrial fragmentation", "setting": "[2]; ConA 40 nM", "result": "enhanced mitochondrial fragmentation"}, {"measurement": "increase in LC3-positive puncta, MMP-high HSCs", "setting": "[2]; ConA 40 nM, 18 hours", "result": 3, "unit": "fold"}, {"measurement": "increase in LC3-positive puncta, MMP-low HSCs", "setting": "[2]; ConA 40 nM, 18 hours", "result": 1.33, "unit": "fold"}, {"measurement": "autolysosomal degradation (colocalization of LAMP1 with LC3)", "setting": "[2]; ConA 40 nM, leupeptin 100 mM, chloroquine 40 mM, 18 hours, MMP-low and MMP-high HSCs", "result": "dramatically prevented autolysosomal degradation"}, {"measurement": "glycolysis (ECAR) in MMP-high and MMP-low HSPCs", "setting": "[3]", "result": "collapsed glycolysis"}, {"measurement": "oxygen consumption in MMP-low HSPCs", "setting": "[3]", "result": "only a relatively small effect"}, {"measurement": "oxygen consumption in primed (MMP-high) HSPCs", "setting": "[3]", "result": "drastically decreased oxygen consumption"}]}]}
